Assay type in all cases: functional
Test [1] relates to Mycobacterium tuberculosis. Description: Growth inhibition of Mycobacterium tuberculosis H37Ra Lehmann and Neumann ATCC 25177 harboring pSMT1 luciferase reporter at 10 uM after 6 days by luminescence based serial dilution method relative to control. Particulars: H37Ra Lehmann and Neumann ATCC 25177, 144 h, read-out: GI. On the technique in general: A reporter such as luciferase makes a cellular process visible.

For test [2], the system named is Mycobacterium tuberculosis. Briefly: Growth inhibition of Mycobacterium tuberculosis H37Ra Lehmann and Neumann ATCC 25177 harboring pSMT1 luciferase reporter at 1 uM after 6 days by luminescence based serial dilution method relative to control. Particulars: H37Ra Lehmann and Neumann ATCC 25177, 144 h, read-out: GI.
For test [3], the system named is Mycobacterium tuberculosis. Description: Growth inhibition of Mycobacterium tuberculosis H37Ra Lehmann and Neumann ATCC 25177 harboring pSMT1 luciferase reporter at 0.1 uM after 6 days by luminescence based serial dilution method relative to control. Particulars: H37Ra Lehmann and Neumann ATCC 25177, 144 h, read-out: GI.
For test [4], the system named is Mycobacterium tuberculosis. Description: Antimycobacterial activity against Mycobacterium tuberculosis H37Ra Lehmann and Neumann ATCC 25177 harboring pSMT1 luciferase reporter after 6 days by luminescence based serial dilution method. As to conditions: H37Ra Lehmann and Neumann ATCC 25177, 144 h.

Converted amounts (≈) assume the structure as drawn.

The term MIC90 denotes an inhibitory concentration at the 90% level, which refers to growth in some studies and to a panel of isolates in others. Higher therefore signals lower susceptibility. Turning to `CC(=O)Oc1c(-c2ccccc2)c(=O)[nH]c2ccc(F)cc12`, the inhibition of growth at 10 µM in test [1] stood at 99.2%. Besides, the inhibition of growth at 1 µM in test [2] stood at 38%. Also, the inhibition of growth at 0.1 µM in test [3] worked out at 31%. The compound also returned an MIC90 in test [4] of 3.8 µM (≈ 1.13 µg/mL).

As for `Cc1cc2[nH]c(=O)c(-c3ccccc3)c(O)c2cc1C`, the inhibition of growth at 10 µM in test [1] is 90.7%. Further, the inhibition of growth at 1 µM in test [2] came to 48.3%. Also, the inhibition of growth at 0.1 µM in test [3] amounted to 32.5%. This compound also yielded an MIC90 in test [4] of 9.2 µM (≈ 2.44 µg/mL).

On to `O=c1[nH]c2c(O)cccc2c(O)c1-c1ccccc1`, for which the inhibition of growth at 10 µM in test [1] was 95.3%. Moreover, the inhibition of growth at 1 µM in test [2] is 67.1%. Moreover, the inhibition of growth at 0.1 µM in test [3] was 60%. Also, the MIC90 in test [4] was determined as 8.3 µM (≈ 2.1 µg/mL).

For `O=c1[nH]c2ccc(F)cc2c(O)c1-c1ccccc1`, in test [1], the inhibition of growth at 10 µM was 99.5%. Also, in test [2], the inhibition of growth at 1 µM was determined as 42.6%. The inhibition of growth at 0.1 µM in test [3] amounted to 35.1%. The same compound came in with an MIC90 in test [4] of 3.2 µM (≈ 0.817 µg/mL).

As to `Cc1ccc2[nH]c(=O)c(-c3ccccc3)c(O)c2c1`, the inhibition of growth at 10 µM in test [1] is 92.3%. In test [2], the inhibition of growth at 1 µM is 51.2%. The inhibition of growth at 0.1 µM in test [3] was 36.2%. The same compound yielded an MIC90 in test [4] of 8 µM (≈ 2.01 µg/mL).

With `O=c1[nH]c2cc(O)ccc2c(O)c1-c1ccccc1`, the inhibition of growth at 10 µM in test [1] was found to be 96.3%. Besides, the inhibition of growth at 1 µM in test [2] was determined as 61.7%. In addition, in test [3], the inhibition of growth at 0.1 µM is 53.7%. The compound further had an MIC90 in test [4] of 8.2 µM (≈ 2.08 µg/mL).

Source of the values: ChEMBL document CHEMBL4118082 (Eur J Med Chem, 2017).
